Publication PMC9405973, “Altered Conformational Landscape upon Sensing Guanine Nucleotides in a Disease Mutant of Elongation Factor-like 1 (EFL1) GTPase” (Biomolecules, 2022)

Biological target: T1, Efl1 R1086Q in complex with Sdo1 and 60S subunits (Saccharomyces cerevisiae, UniProt P53893, R1086Q)
T1 construct: made in house; host or cells: Efl1: Saccharomyces cerevisiae; Sdo1: Escherichia coli C41; 60S subunits purified from S. cerevisiae strain JD1370
T1 sequence (P53893 1-1110 R1086Q): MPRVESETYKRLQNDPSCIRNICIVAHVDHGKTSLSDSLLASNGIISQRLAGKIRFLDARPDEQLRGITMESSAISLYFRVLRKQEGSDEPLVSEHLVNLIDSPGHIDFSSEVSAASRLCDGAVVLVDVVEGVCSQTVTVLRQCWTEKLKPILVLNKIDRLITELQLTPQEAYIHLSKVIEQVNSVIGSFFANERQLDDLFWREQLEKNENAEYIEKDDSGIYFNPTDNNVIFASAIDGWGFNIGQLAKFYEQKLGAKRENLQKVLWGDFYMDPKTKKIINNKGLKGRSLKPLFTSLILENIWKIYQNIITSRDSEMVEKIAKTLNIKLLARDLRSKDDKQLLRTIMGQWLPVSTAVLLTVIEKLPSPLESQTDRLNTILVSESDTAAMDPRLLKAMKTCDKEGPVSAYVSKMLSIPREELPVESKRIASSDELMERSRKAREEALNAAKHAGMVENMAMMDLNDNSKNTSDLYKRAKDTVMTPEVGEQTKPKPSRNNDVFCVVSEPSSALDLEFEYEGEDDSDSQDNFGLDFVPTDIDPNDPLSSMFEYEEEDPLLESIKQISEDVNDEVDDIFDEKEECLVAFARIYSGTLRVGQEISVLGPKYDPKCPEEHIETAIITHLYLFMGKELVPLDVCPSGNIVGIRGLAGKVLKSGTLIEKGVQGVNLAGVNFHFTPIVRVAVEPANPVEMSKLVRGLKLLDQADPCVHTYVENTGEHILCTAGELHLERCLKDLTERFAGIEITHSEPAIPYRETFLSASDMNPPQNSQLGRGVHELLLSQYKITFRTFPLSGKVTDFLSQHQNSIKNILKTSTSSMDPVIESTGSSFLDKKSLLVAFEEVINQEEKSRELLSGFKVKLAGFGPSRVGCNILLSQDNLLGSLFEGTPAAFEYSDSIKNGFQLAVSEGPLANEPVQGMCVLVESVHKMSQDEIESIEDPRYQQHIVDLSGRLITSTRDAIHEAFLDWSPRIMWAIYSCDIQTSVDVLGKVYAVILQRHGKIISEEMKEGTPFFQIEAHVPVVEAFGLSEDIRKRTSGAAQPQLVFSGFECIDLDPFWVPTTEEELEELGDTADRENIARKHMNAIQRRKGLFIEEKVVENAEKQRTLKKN
T1 sequence (Q07953 1-250 partner): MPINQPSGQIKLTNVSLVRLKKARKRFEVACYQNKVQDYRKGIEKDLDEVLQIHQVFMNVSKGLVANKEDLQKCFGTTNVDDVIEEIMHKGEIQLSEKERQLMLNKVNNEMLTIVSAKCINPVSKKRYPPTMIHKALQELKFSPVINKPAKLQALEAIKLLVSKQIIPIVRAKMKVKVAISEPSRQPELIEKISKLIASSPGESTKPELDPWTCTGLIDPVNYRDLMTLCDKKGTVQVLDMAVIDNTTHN
Experiment: Steady state fluorescence binding of mant-GTP to Efl1 R1086Q in complex with Sdo1 and 60S subunits
Conditions: 25 °C, one-binding-site model; read-out: dissociation constant (Kd)
Protocol: We measured the binding of different Efl1 constructs present in complex with Sdo1 and 60S subunits to the fluorescence GTP analogue, mant-GTP, by following the increase in the fluorescence signal after excitation at 355 nm. Fluorescence intensities were plotted as a function of increasing nucleotide concentrations, and the dissociation constant (Kd) was calculated by fitting the data to a one-binding-site model (Supplementary Figure S1B).
Hydrolysis of GTP was measured using the Enzchek Phosphate Assay kit (Molecular Probes) as described by Webb. Standard reactions consisted of 100 µL containing 6 µM of Efl1 R1086Q and Efl1 L910K, 0.3 mM MESG, 1.0 U purine nucleoside phosphorylase (PNP) and the indicated amounts of GTP. […]
Reactions were initiated and the GTPase was added after 3 min. Time courses were followed by recording the change in absorbance at 360 nm in a Cary 60 UV -Vis spectrophotometer (Agilent Technologies). Background absorbance was recorded prior to the addition of the GTPase and subtracted from the sample signals. The slope of the measured time courses corresponded to the GTP hydrolysis rate. […] Data were analysed by nonlinear regression to the M ichaelis-Menten equation with the program Origin Version 5.0 (OriginLab, Co., Northampton, MA). […]
Steady state fluorescence measurements […]
Maximum emission at 440 nm was replotted as a function of nucleotide concentration and analysed

`CNc1ccccc1C(=O)O[C@H]1[C@@H](O)[C@H](n2cnc3c(=O)[nH]c(N)nc32)O[C@@H]1COP(=O)(O)OP(=O)(O)OP(=O)(O)O` [mant-GTP] gave a Kd of 32 µM.
